# According to patent US20150196531A1, “Methods and Compositions For Treating Sleep-Related Breathing Disorders” (Sunovion Pharmaceuticals Inc., priority 2007, published 2015):
# What was measured:
# [1] = biological target: T1, dopamine uptake, rat reuptake transporter (synaptosomes from male Wistar rat striatum) (Rattus norvegicus, UniProt P23977); assay: Dopamine functional uptake assay for rat reuptake transporter (synaptosomes); format: biochemical; settings: for IC50: rat synaptosomes, [3H]-dopamine uptake, read-out: Inhibition of monoamine uptake, Rat DA, IC50
# T1 construct: synaptosomes isolated in a 0.32 M sucrose buffer from a male Wistar rat striatum; from tissue; host or cells: male Wistar rat striatum synaptosomes
# Description: (§1) The concentrations of radioligand employed in the assays were at or below the KM for the monoamine substrates with their cognate transporters. Compounds were tested at 5 to 10 different concentrations in duplicate in order to obtain full inhibition curves.
# Quantification of dopamine uptake was performed using synaptosomes isolated in a 0.32 M sucrose buffer from a male Wistar rat striatum. The uptake of radiolabelled dopamine by synaptosomes (20 μg of proteins/point) was allowed by incubating them for 15 minutes at 37° C. in the presence of test compounds and [^3H]-dopamine (0.1 μCi/point). The experiment was performed in a deep well.
# Synaptosomes and [^3H]-dopamine were prepared in a Krebs buffer pH 7.4 containing 25 mM NaHCO3, 11 mM glucose and 50 μM ascorbic acid. This incubation buffer was oxygenated for 5 minutes before incubation. Basal control was incubated for 15 minutes at 4° C. in order to avoid any uptake. Following this incubation, the uptake was stopped by filtration through a unifilter 96-wells GFB Packard plate washed with Krebs buffer containing 25 mM NaHCO3in order to eliminate free [^3H]-dopamine. The radioactivity associated to the synaptosomes retained onto the unifilter corresponding to the uptake was then measured with a microplate scintillation counter (Topcount, Packard) using a scintillation fluid.
# [2] = biological target: norepinephrine uptake, rat reuptake transporter (synaptosomes from male Wistar rat hypothalamus) (Rattus norvegicus, UniProt Q63380); assay: Norepinephrine functional uptake assay for rat reuptake transporter (synaptosomes); format: biochemical; settings: [3H]-norepinephrine uptake, read-out: Inhibition of monoamine uptake, Rat NE, IC50
# Description: as §1
# Quantification of norepinephrine uptake was performed using synaptosomes isolated in a 0.32 M sucrose buffer from a male Wistar rat hypothalamus. The uptake of radiolabelled norepinephrine by synaptosomes (100 μg of proteins/point) was allowed by incubating them for 20 minutes at 37° C. in presence of test compounds and [^3H]-norepinephrine (0.1 μCi/point). The experiment was performed in a deep well.
# Synaptosomes and [^3H]-norepinephrine were prepared in a Krebs buffer pH 7.4 containing 25 mM NaHCO3, 11 mM glucose and 50 μM ascorbic acid. This incubation buffer was oxygenated for 5 minutes before incubation. Basal control was incubated for 20 minutes at 4° C. in order to avoid any uptake. Following this incubation, the uptake was stopped by filtration through a unifilter 96-wells GFB. Packard plate washed with Krebs buffer containing 25 mM NaHCO3 in order to eliminate the free [^3H]-norepinephrine. The radioactivity associated to the synaptosomes retained onto the unifilter corresponding to the uptake was then measured with a microplate scintillation counter (Topcount, Packard) using a scintillation fluid.
# [3] = biological target: recombinant human dopamine transporter expressed in CHO-K1 cells (Homo sapiens, UniProt Q01959)
# Description: as §1
# Test compound and/or vehicle was preincubated with cells (4×10^5/ml) in modified Tris-HEPES buffer pH 7.1 for 20 minutes at 25° C. and 50 nM [^3H]Dopamine was then added for an additional 10 minute incubation period. A lysate was obtained from solubilized cells and the amount of tritium in the lysate was measured using a liquid scintillation counter to determine [^3H]Dopamine uptake. Reduction of [^3H]Dopamine uptake by 50 percent or more (≧50%) relative to 10 μM nomifensine indicates significant inhibitory activity.
# [4] = biological target: 5-HT uptake, rat reuptake transporter (synaptosomes from male Wistar rat cortex) (Rattus norvegicus, UniProt P31652); settings: at a 10 μM concentration
# 5-HT uptake, rat reuptake transporter (synaptosomes from male Wistar rat cortex), sequence (P31652 whole entry): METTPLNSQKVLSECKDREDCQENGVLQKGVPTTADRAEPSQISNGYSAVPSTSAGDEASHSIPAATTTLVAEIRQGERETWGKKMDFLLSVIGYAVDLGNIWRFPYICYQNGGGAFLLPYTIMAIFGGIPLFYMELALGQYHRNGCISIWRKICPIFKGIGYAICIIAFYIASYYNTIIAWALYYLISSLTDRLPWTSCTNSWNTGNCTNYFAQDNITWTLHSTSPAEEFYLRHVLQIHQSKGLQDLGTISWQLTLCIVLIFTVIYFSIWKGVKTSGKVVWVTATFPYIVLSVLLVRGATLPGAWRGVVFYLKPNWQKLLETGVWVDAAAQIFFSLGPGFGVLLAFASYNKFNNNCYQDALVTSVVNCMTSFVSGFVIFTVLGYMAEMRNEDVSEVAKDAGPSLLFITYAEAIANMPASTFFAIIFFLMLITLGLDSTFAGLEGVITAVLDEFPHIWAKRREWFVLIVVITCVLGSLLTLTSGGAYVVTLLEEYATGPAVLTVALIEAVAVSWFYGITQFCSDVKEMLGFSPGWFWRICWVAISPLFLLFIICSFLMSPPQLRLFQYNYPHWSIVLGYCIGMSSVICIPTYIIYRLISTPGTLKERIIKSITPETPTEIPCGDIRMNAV
# Description: as §1
# Quantification of 5HT uptake was performed using synaptosomes isolated in a 0.32M sucrose buffer from a male Wistar rat cortex. The uptake of radiolabelled 5-HT by synaptosomes (100 μg of proteins/point) was allowed by incubating them in a well for 15 min at 37° C. in presence of test compounds and [^3H]5-hydroxytryptamine (0.1 μCi/point).
# Synaptosomes and [^3H]5-hydroxytryptamine were prepared in a Krebs buffer pH 7.4 containing 25 mM NaHCO3, 11 mM mM glucose and 50 μM ascorbic acid. This incubation buffer was oxygenated during 5 minutes before incubation. Basal control was incubated for 15 minutes at 4° C. in order to avoid any uptake. […] The radioactivity associated to the synaptosomes retained on the unifilter corresponding to the uptake was then measured with a microplate scintillation counter (Topcount, Packard) using a scintillation fluid. Nonspecific binding was measured in the presence of an excess of cold, unlabeled ligand. […]
# norepinephrine uptake, rat reuptake transporter (synaptosomes from male Wistar rat hypothalamus), sequence (Q63380 1-617): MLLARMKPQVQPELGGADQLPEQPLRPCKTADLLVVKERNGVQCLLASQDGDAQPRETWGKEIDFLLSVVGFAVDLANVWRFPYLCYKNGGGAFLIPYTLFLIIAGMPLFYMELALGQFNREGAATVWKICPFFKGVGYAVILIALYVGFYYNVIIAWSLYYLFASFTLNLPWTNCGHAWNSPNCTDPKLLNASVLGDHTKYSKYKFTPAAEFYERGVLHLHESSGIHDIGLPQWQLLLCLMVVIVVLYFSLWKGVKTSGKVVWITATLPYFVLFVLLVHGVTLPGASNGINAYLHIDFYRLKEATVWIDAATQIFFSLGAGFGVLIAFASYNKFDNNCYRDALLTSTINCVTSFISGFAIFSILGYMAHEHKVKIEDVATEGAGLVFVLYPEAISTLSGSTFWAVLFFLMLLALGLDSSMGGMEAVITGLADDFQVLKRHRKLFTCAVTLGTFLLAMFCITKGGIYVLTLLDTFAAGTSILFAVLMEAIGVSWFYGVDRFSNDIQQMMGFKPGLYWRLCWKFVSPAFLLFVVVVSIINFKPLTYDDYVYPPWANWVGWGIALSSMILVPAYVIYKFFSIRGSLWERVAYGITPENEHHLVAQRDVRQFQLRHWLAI
# T1 sequence (P23977 whole entry): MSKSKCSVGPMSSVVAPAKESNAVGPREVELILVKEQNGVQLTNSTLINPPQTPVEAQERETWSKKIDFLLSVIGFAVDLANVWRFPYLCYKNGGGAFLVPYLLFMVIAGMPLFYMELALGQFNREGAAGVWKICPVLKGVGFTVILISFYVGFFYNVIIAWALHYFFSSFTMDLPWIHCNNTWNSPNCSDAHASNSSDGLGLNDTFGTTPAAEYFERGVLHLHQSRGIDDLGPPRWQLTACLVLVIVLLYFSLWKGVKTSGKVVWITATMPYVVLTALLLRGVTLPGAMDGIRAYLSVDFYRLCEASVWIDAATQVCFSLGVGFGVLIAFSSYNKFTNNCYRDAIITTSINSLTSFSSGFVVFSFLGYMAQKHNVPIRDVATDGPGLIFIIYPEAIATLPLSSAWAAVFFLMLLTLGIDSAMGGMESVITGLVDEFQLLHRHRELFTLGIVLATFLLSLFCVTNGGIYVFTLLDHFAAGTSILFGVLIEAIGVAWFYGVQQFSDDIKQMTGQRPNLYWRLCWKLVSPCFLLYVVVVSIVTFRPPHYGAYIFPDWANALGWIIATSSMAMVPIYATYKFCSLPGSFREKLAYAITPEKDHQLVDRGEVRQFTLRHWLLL
# recombinant human dopamine transporter expressed in CHO-K1 cells, sequence (Q01959 whole entry): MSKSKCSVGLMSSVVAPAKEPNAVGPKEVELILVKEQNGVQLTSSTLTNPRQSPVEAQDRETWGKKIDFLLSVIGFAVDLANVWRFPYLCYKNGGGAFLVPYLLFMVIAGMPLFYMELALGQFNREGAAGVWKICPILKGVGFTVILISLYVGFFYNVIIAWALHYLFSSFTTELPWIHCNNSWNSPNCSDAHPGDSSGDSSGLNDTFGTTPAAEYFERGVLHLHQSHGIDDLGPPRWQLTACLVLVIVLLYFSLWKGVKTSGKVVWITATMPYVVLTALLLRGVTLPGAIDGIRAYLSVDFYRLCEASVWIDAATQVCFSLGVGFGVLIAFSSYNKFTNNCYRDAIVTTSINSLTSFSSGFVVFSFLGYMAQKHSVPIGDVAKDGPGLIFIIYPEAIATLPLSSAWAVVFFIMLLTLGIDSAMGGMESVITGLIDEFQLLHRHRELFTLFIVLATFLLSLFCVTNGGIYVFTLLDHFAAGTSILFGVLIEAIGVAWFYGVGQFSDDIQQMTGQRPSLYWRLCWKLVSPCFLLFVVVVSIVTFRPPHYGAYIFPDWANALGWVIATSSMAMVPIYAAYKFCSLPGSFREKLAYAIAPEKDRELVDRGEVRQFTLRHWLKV
smiles,measurement,setting,value
"CN(C)CC(c1ccc(O)cc1)C1(O)CCCCC1 (single isomer, unassigned; (-)) [(−)-O-desmethylvenlafaxine]",IC50,[1],5700 nM
same,IC50,[2],430 nM
"CN(C)CC(c1ccc(O)cc1)C1(O)CCCCC1 (racemic) [Racemic O-desmethylvenlafaxine, O-desmethylvenlafaxine]","Inhibition of functional reuptake, Human DA (IC50 not given)",[3],— (key: — indicates less than 50% inhibition of functional reuptake at a 10 μM concentration.)
same,IC50,[1],7500 nM
same,IC50,[2],1500 nM
"CN(C)CC(c1ccc(O)cc1)C1(O)CCCCC1 (single isomer, unassigned; (+)) [(+)-O-desmethylvenlafaxine]","Inhibition of functional reuptake, Human DA (IC50 not given)",[3],— (key: — indicates less than 50% inhibition of functional reuptake at a 10 μM concentration.)
same,"Inhibition of functional reuptake, Rat 5-HT (IC50 not given)",[4],— (— indicates less than 50% inhibition of functional reuptake at a 10 μM concentration.)
same,"Inhibition of functional reuptake, Rat DA (IC50 not given)",[1]; at a 10 μM concentration,— (— indicates less than 50% inhibition of functional reuptake at a 10 μM concentration.)
same,IC50,[2],1700 nM
